Measured values reported in patent US20230210994A1, “CELL-PENETRATING CONJUGATE SYSTEMS” (Danmarks Tekniske Universitet, priority 2019, published 2023).
“Also recorded” adds a separate entry of the source.

Tests used:
CT26 cells [1] = assay: Uptake of Oxaliplatin by CT26 cells measured by ICP-MS; type: cell-based, mouse; details: for enhancement of OxPt internalization versus OxPt alone: 10 μM OxPt, 24 hours
Experimental: CT26 cells were seeded in 24-well plate (100.000 cells/mL/well) exposed to Oxaliplatin (Ox-Pt, 10 μM and 30 μM) with/and without conjugate the molar ratio of 1:1, 1:3 and 3:1 respectively. After 1, 4, 24 hours of incubation, media was discarded and the cells were washed with PBS twice, once with heparin (to remove anything associated externally with the cell membrane) and once more with PBS. Then the cells were detached from the wells using trypsin and cells were counted. Finally, each sample was diluted in HCl acid and further diluted in 2% HCl with (0.5 ppb Ir), then Pt content was measured in the ICP-MS.

[2] = In vivo insulin delivery and bioavailability experiment, oral enteric-coated capsule; parameters: species or system Sprague-Dawley rats
Experimental: […] Insulin dosage was estimated to be ˜120 I.U. The capsule was mechanically guided across the duodenum and rat-tail plasma samples were collected for a period of 3 hours (at specified periodic intervals). Blood glucose measurement was made with Glucometer and plasma insulin concentration via ELISA.

CT26 colon cancer cells = assay: Internalization of INS-FITC in CT26 cells, flow cytometry and fluorescent imaging; type: cell-based, mouse
Experimental: CT26 colon cancer cells were seeded in 24-well plates at 100.000 cells/well/mL. After 24 hours, cells were treated with INS-FITC at 10 μM or 30 μM concentration either alone or in combination with the conjugate 4-hydroxybutyl L-tryptophanate in three different molar ratios (1:1, 1:3 or 3:1). Treatments were co-incubated with the CT26 cells for 1 h, 4 h or 24 h. Before observation, cells were washed several times with PBS, and with heparin, to ensure removal of compounds that might remain softly bound to cell membrane and not internalized. Then the washed cells were detached from the wells using trypsin, centrifuged and re-suspended in PBS for analysis by flow cytometry. In flow the cells were gated as singlets (single cell events) and then the fluorescence was recorded for each event in the specific FL channel were the compound has its emission max (INS-FITC: FL1 (525+/−40).

[3] = test system: pig intestine (gut epithelium); assay: Binding of conjugate system to the pig intestine (gut epithelium) ex vivo
Experimental: Biological functionality and compliance was tested utilizing intestinal tissue from pigs. A cross section of the pig intestine (1 cm^2)was cleaned and subjected to the conjugate (1 mg/ml; 3.65 mM). After incubation (1 hour) of said tissue with the conjugate system, 4-hydroxybutyl L-tryptophanate, the tissue was washed and excess mucous layer removed by gentle physical exfoliation (scrapping via a spatula).

CT-26 cells [4] = assay: Internalization of Paclitaxel (PTX) in CT-26 cells measured by flow cytometry; type: cell-based, mouse
Experimental: There is a remarkable increment in the percentage of cells containing PTX when co-administered with the conjugate, especially after 24 hours incubation. (c) depicts the amount of PTX internalization expressed as mean fluorescence intensity (MFI).

CT-26 cells [5] = assay: Ethidium-homodimer internalization in CT-26 cells, fluorescent confocal microscopy; type: cell-based, mouse
Experimental: CT-26 cells in culture were co-incubated with the conjugate system, 4-hydroxybutyl L-tryptophanate, (1 mg/ml) and Etidium-homodimer (2 μl/ml) for 1 hour and observed under fluorescent confocal microscope. Working ratio was set as 1:3 and two reaction sets comprising of higher (80 μl) loading and standard loading (40 μl ) were performed. Emission bandwidth was set as 490-550nm and 590-680 nm.

CT-26 cells [6] = assay: Cellular internalization of insulin (Novorapid) in CT-26 cells, MALDI-TOF; type: cell-based, mouse; details: commercial insulin (20 μl) + conjugate (20 μl), 4 hours
Experimental: MALDI-TOF is a standard technique for analysis of molecules based upon their mass/charge (m/z) ratio. In this study, the inventors exposed CT-26 cells with commercial insulin (20 μl) and conjugate system, 4-hydroxybutyl L-tryptophanate (20 μl). After 4 hours, the cells were sonicated (ruptured) and cell-debris removed; Resulting supernatant was subjected to MALDI analysis.

mouse CD-4 (+) T-cells = assay: Fluorescent tagging of T-cells, confocal Z-stack imaging; type: cell-based; details: 100 μL conjugate (1 mg/ml) added to 500 μL cell suspension, 24 hours
Experimental: 100 μL 4-hydroxybutyl L-tryptophanate conjugate (1 mg/ml) was added to the cell suspension solution (500 μL; 1×10^5 cells/mL) and incubated for 24 hours. Cells were washed with PBS buffer and analyzed via Z-stack imaging was to confirm internalization of the 4-hydroxybutyl L-tryptophanate conjugate. Cell imaging was done for 0, 24, 48 and 72 hours—though 24 hours was found the optimum time frame.

CT26 cells [7] = assay: Internalization of resiquimod (R848) in CT26 cells detected by HPLC; type: cell-based, mouse
Experimental: CT26 cells were seeded in 24-well plates (10^5 cells/well). After 24 hours the cells were treated with either 100 or 300 μM concentration of resiquimod (R848) alone or in combination with the 4-hydroxybutyl L-tryptophanate conjugate. After 4 and 24 hours incubation cells were washed with cold PBS and with heparin solution (0.1 mg/mL heparin in PBS), and detached from the wells using trypsin. Then the cells were diluted in acetonitrile with 0.1% TFA and the amount of R848 was detected by HPLC.

## N[C@@H](Cc1c[nH]c2ccccc12)C(=O)OCCCCO [4-hydroxybutyl L-tryptophanate]
CT26 cells [1]; conjugate:OxPt 10:10 molar ratio
  enhancement of OxPt internalization versus OxPt alone: 37.6%
CT26 cells [1]; conjugate:OxPt 30:10 molar ratio
  enhancement of OxPt internalization versus OxPt alone: 23.5%
CT26 cells [1]; 30 μM OxPt, 10:30 ratio (Conj.:OxPt)
  internalization percentage of OxPt increased to: 451%
CT26 cells [1]; combination of OxPt and the conjugate, overall
  Pt signal in CT26 cells compared to OxPt alone: increased amount of Pt signal
[2]; insulin 1.1 mg (~80 I.U) + conjugate 8 mg, within twenty minutes, n=3
  drop in blood sugar: ~15%
[2]; insulin 1.5 mg (~120 I.U.) + conjugate 0.5 mg, within the first hour, n=2
  drop in blood sugar: ~20%
CT26 colon cancer cells; conjugate alone, post 24-hours incubation
  fluorescence under fluorescent microscope: No observable fluorescence
CT26 colon cancer cells; conjugate to insulin 30:10 μM, 24 hours
  percentage increase of INS-FITC internalization (MFI) compared to free insulin at the same concentration: around 72.3%
CT26 colon cancer cells; conjugate:INS-FITC 10:10 μM, 4 hours
  percentage increase of INS-FITC internalization (MFI): 20.5%
CT26 colon cancer cells; insulin to conjugate 30:10 μM, constant from 4 to 24 hours
  percentage increase of INS-FITC internalization (MFI): 11.4%
[3]; conjugate 1 mg/ml (3.65 mM), 1 hour incubation, tissue washed, excess mucous layer removed
  fluorescence signal on tissue (tissue binding and transmembrane penetration): clear fluorescence signal
[3]; conjugate 1 mg/ml, 1 hour
  normalized fluorescence intensities on tissue versus controls on glass: higher than controls incubated on a glass sample
[3]; pig intestine with mucus
  penetration across mucosal layer and binding to gut epithelium despite repeated washes: deeply penetrate across mucosal layer on intestinal epithelium and bind to the tissue
CT-26 cells [4]; Conjugate 10 μM + PTX 10 μM, 1 h
  % cells uptake (1 h), CT-26 cells with PTX internalized: 4.7%
CT-26 cells [4]; Conjugate 10 μM + PTX 10 μM, 4 h
  % cells uptake (4 h), CT-26 cells with PTX internalized: 6.2%
CT-26 cells [4]; Conjugate 10 μM + PTX 10 μM
  % cells with uptake (24 h), CT-26 cells with PTX internalized: 22.1%
CT-26 cells [4]; Conjugate 10 μM + PTX 30 μM, 1 h
  % cells uptake (1 h), CT-26 cells with PTX internalized: 5.0%
CT-26 cells [4]; Conjugate 10 μM + PTX 30 μM, 4 h
  % cells uptake (4 h), CT-26 cells with PTX internalized: 6.9%
CT-26 cells [4]; Conjugate 10 μM + PTX 30 μM
  % cells with uptake (24 h), CT-26 cells with PTX internalized: 29.2%
CT-26 cells [4]; Conjugate 30 μM + PTX 10 μM, 1 h
  % cells uptake (1 h), CT-26 cells with PTX internalized: 11.2%
CT-26 cells [4]; Conjugate 30 μM + PTX 10 μM, 4 h
  % cells uptake (4 h), CT-26 cells with PTX internalized: 17.6%
CT-26 cells [4]; Conjugate 30 μM + PTX 10 μM, listed as Conjugate
  % cells with uptake (24 h), CT-26 cells with PTX internalized: 49.8%
CT-26 cells [4]; Conjugate 30 μM + PTX 10 μM, listed as conjugate
  % cells with uptake (24 h), CT-26 cells with PTX internalized: up to 50%
CT-26 cells [4]; PTX 10 μM, Conjugate:PTX molar ratio 1:1 (10:10)
  Percentage increase in PTX signal (MFI) compared to PTX alone; head: % cells with uptake (24 h): 22.3%
CT-26 cells [4]; PTX 10 μM, Conjugate:PTX molar ratio 1:1, 1 h
  Percentage increase in PTX signal (MFI) compared to PTX alone; head: % cells uptake (1 h): 6.8%
CT-26 cells [4]; PTX 10 μM, Conjugate:PTX molar ratio 1:1, 4 h
  Percentage increase in PTX signal (MFI) compared to PTX alone; head: % cells uptake (4 h): 12.4%
CT-26 cells [4]; PTX 10 μM, Conjugate:PTX molar ratio 3:1 (30:10), 1 h
  Percentage increase in PTX signal (MFI) compared to PTX alone; head: % cells uptake (1 h): 20.6%
CT-26 cells [4]; PTX 10 μM, Conjugate:PTX molar ratio 3:1 (30:10), 1 h, listed as Conjugate
  Percentage increase in PTX signal (MFI) compared to PTX alone; head: % cells uptake (1 h): 7.8%
CT-26 cells [4]; PTX 10 μM, Conjugate:PTX molar ratio 3:1 (30:10), 4 h
  Percentage increase in PTX signal (MFI) compared to PTX alone; head: % cells uptake (4 h): 32.4%
CT-26 cells [4]; PTX 10 μM, Conjugate:PTX molar ratio 3:1 (30:10), 4 h, listed as Conjugate
  Percentage increase in PTX signal (MFI) compared to PTX alone; head: % cells uptake (4 h): 11.4%
CT-26 cells [4]; PTX 10 μM, Conjugate:PTX molar ratio 3:1 (30:10)
  Percentage increase in PTX signal (MFI) compared to PTX alone; head: % cells with uptake (24 h): 56.2%
CT-26 cells [4]; PTX 10 μM, Conjugate:PTX molar ratio 3:1 (30:10), listed as Conjugate
  Percentage increase in PTX signal (MFI) compared to PTX alone; head: % cells with uptake (24 h): 27.1%
CT-26 cells [4]; PTX 30 μM, Conjugate:PTX molar ratio 1:3 (10:30), 1 h
  Percentage increase in PTX signal (MFI) compared to PTX alone; head: % cells uptake (1 h): 20.6%
CT-26 cells [4]; PTX 30 μM, Conjugate:PTX molar ratio 1:3 (10:30), 4 h
  Percentage increase in PTX signal (MFI) compared to PTX alone; head: % cells uptake (4 h): 32.4%
CT-26 cells [4]; PTX 30 μM, Conjugate:PTX molar ratio 1:3 (10:30)
  Percentage increase in PTX signal (MFI) compared to PTX alone; head: % cells with uptake (24 h): 27.1%
CT-26 cells [4]; PTX 30 μM, Conjugate:PTX molar ratio 1:3 (10:30), listed as Conjugate
  Percentage increase in PTX signal (MFI) compared to PTX alone; head: % cells with uptake (24 h): 56.2%
CT-26 cells [5]; EtDi 2 μl/ml co-administered with conjugate 1 mg/ml, 1 hour
  internalization of Ethidium-homodimer (EtDi): confirmed; also recorded: got internalized into the cells
CT-26 cells [5]; EtDi combined with the conjugate
  increase of EtDi fluorescence (mean pixel intensity of confocal images) compared with EtDi alone: 8.67 fold
CT-26 cells [5]; conjugate 1 mg/ml + EtDi 2 μl/ml, 1 hour
  condition of CT-26 cells and membranes after co-administration: healthy with fully intact membranes
CT-26 cells [5]; conjugate + EtDi
  Z-stack analysis at single cell level: internalization of both the EtDi and conjugate
CT-26 cells [6]
  insulin signal in MALDI-TOF of cell supernatant: clearly distinct
Mouse CD-4 (+) T-cells
  cellular internalization of the conjugate (Z-stack imaging, fluorescence 488 nm): confirmed cellular internalization
CT26 cells [7]; conjugate (100 μM) + R848 (100 μM), 4 hours, listed as 4-hydroxybutyl L-tryptophanate conjugate
  Fold increase internalization of resiquimod (R848) compared to R848 alone: 4.9 fold
CT26 cells [7]; conjugate (100 μM) + R848 (100 μM), 24 hours
  Fold increase internalization of resiquimod (R848) compared to R848 alone: 0.9 fold
CT26 cells [7]; conjugate (100 μM) + R848 (300 μM), 4 hours
  Fold increase internalization of resiquimod (R848) compared to R848 alone: 1.4 fold
CT26 cells [7]; conjugate (100 μM) + R848 (300 μM), 24 hours
  Fold increase internalization of resiquimod (R848) compared to R848 alone: 1.8 fold
CT26 cells [7]; conjugate (300 μM) + R848 (100 μM), 4 hours
  Fold increase internalization of resiquimod (R848) compared to R848 alone: 1.5 fold
CT26 cells [7]; conjugate (300 μM) + R848 (100 μM), 24 hours
  Fold increase internalization of resiquimod (R848) compared to R848 alone: 1.1 fold
